Assay results: US20090137678A1, “HIGH YIELD SYNTHESIS METHODS FOR PRODUCING ORGANIC SALTS OF STRONTIUM” (priority 2005, published 2009)

Experiments:
[1] = Heating of strontium malonate sesquihydrate to remove bound crystal water; format: physicochemical
Description: The crystal water was irreversibly detached from the malonate at temperatures above approx. 70° C. Thus, anhydrous strontium malonate was produced in high yield and high purity by boiling a solution of strontium malonate.

new vertebral fracture = conditions: cited from earlier work

SMILES: O.O.O.O=C([O-])CC(=O)[O-].O=C([O-])CC(=O)[O-].[Sr+2].[Sr+2] [strontium malonate sesquihydrate]
- temperature above which crystal water is irreversibly detached [1]: > 70 °C

SMILES: N#Cc1c(N(CC(=O)[O-])CC(=O)[O-])sc(C(=O)[O-])c1CC(=O)[O-].[Sr+2].[Sr+2] [strontium ranelate]
- RR of new vertebral fracture vs placebo (new vertebral fracture; 95% CI=0.48-0.73, P<0.001): 0.59
- serum cross-linked C terminal telopeptides of type I collagen (CTX, marker of bone resorption) (new vertebral fracture; clinical studies, serum): decreased
- bone formation marker BSAP (new vertebral fracture; clinical studies): increased
- patients who sustained a new vertebral fracture (new vertebral fracture; strontium treated group, vs 222 in the placebo group, more than 7000 individuals): 139 patients
